Results: PMC8350397, “GSK137, a potent small-molecule BCL6 inhibitor with in vivo activity, suppresses antibody responses in mice” (The Journal of Biological Chemistry, 2021)
Entries after “also recorded” stand apart in the source; their conditions may differ.

Key:
ULA cells = assay: Viability and cumulative cell number analysis, ULA; type: cell-based; conditions: 14 days; for cell viability: GSK137 0.1-10 μM, BI3802 0.1 and 1 μM
Description: (§1) Farage cells were cultured in RPMI1640 (1×) + 20% heat-inactivated fetal bovine serum (FBS), ULA in Iscove's modified Dulbecco's medium + 20% FBS, whereas Karpas422 and VAL were cultured in RPMI1640 + 20% heat-inactivated FBS, all with the addition of 1% Glutamax and 1% sodium pyruvate.
(§2) Farage, ULA, Karpas422, and VAL cells were seeded into T25 tissue culture flasks in a total volume of 7 mL per flask at densities of 5 x10^4, 7 x10^4, 5 x10^4, and 4 x10^4 cells/mL, respectively and incubated overnight at 37 °C and 5% CO2. Cells were then treated with a 3-point titration of GSK137 (0.1 µM, 1 µM, and 10 µM) throughout a 14-day time course. Treatments with multiple concentrations of BI3802 were also included for comparison (Farage and Karpas422 cells were treated with 0.01 µM, 0.1 µM, and 1 µM BI3802; ULA cells were treated with 0.1 µM and 1 µM BI3802; VAL cells were treated with 0.1 µM, 1 µM, and 10 µM BI3802). Viability (trypan blue exlcusion) and cumulative cell number were measured on a Vi-CELL XR 2.03 (Beckman Coulter, Brea, CA, USA) on day of seeding and on days 3, 6, 10, and 14.

[1] = target: T1, full-length human BCL6 binding to BCL6-binding domain of SMRT (residues 1292-1500) (Homo sapiens, UniProt P41182); assay: NanoBRET cell assay in HEK293-WT cells; type: cell-based
T1 construct: Nano Luciferase fused at the N-terminus of full-length human BCL6; host or cells: HEK293-WT (ATCC CRL-1573)
From the text: Plasmids encoding Nano Luciferase fused at the N-terminus of full-length human BCL6 and encoding Halo tag fused at the C-terminus of the BCL6 binding domain (1292-1500) of human SMRT co-repressor were generated under contract by Promega Corporation. HEK293-WT cells were from ATCC (CRL-1573). Fugene HD transfection reagent (catalogue number E2311), HaloTag NanoBRET 618 ligand (catalogue number G980B) and NanoBRET Nano-Glo substrate (catalogue number N157B) were from Promega Ltd.
Assay day 1 (Transient Transfection): 8 x 10^6 HEK293-WT cells per T75 flask (one per compound plate), were transfected with mix comprising 10 µg BCL6 DNA, 10 µg domain SMRT DNA, 1 mL Opti-MEM and 60 µL FuGene (added last), incubating at room temperature for 10 mins prior to addition to flask. The flask was incubated for 20-24 hours at 37 °C and 5% CO2. Assay day 2 (Cell plating): Cells were detached, spun and re-suspended at 2 x 10^5 cells/mL, HaloTag NanoBRET 618 ligand at 1:1000 dilution was added and plated at 40 µL / well with test compounds prepared as above, a duplicate plate without HaloTag ligand was used as background control. The plates were incubated at 37 °C and 5% CO2 overnight (18-24 hours). Assay day 3 (Assay): 1:1000 NanoGlo substrate final was added to all wells, shaken for 30 seconds and luminescence then read on an Envision plate reader. […]

[2] = tested on: Farage, Karpas422 and VAL cells; assay: Viability and cumulative cell number analysis, Farage, Karpas422, VAL; type: cell-based; conditions: 14 days
Description: as §1, §2

[3] = target: T2, human BCL6 BTB-POZ domain (SMRT co-repressor peptide) (Homo sapiens, UniProt P41182, C67R/C84N/C8Q); assay: BCL6 TR-FRET assay, SMRT peptide displacement; type: binding
T2 construct: BCL6-Flag-6H-Avi (5-129) C8Q, C67R, C84N proteins; Flag (C); 6H (His6) (C); made in house; host or cells: E. coli
Description: Human, mouse and rat BCL6-Flag-6H-Avi (5-129) C8Q, C67R, C84N proteins were expressed in E. coli according to standard procedures and purified on Ni-NTA, followed by ion exchange on a Source 30Q column and size exclusion on an Superdex 200 column in a buffer of 20 mM Tris, 250 mM NaCl, 5 mM DTT, 5% glycerol, pH 8.5. All protein purities were estimated to be >90% by SDS-PAGE and the expected masses were confirmed by MS analysis. For TR-FRET assay protein was enzymatically biotinylated by treatment of protein at 100 µM with a 2 fold molar excess of biotin in the presence of 2 mM ATP and 1 µM BirA enzyme in a buffer of 50 mM bicine pH 8.3, 10 mM MgCl2 at 30 °C for 1 hour, followed by extensivedialysis against 50 mM Tris-Cl pH 8.0, 100 mM NaCl, 1 mM DTT using a 3.5 kDa cut-off membrane. Biotinylation was confirmed by MS analysis and concentration was determined by Bradford assay, after which protein was stored in aliquots at -80 °C.
Acceptor-labelled SMRT peptide H2N-[…](D2)-OH was dissolved in water by mass to give a 500 µM stock solution which was stored at -20 °C. Acceptor-labelled NCOR peptide H2N-[…](Alexa Fluor 647)-OH and acceptor-labelled BCOR peptide H2N-[…](Alexa Fluor 647)-OH were dissolved to a nominal concentration of 1 mM in DMSO, and stock solution concentration was determined by absorbance at 650 nm using an extinction coefficient of 270,000 M-1cm^-1. […]

[4] = target: human serum albumin (HSA) (Homo sapiens, UniProt P02768); assay: Binding to human serum albumin; type: in vitro ADME
human serum albumin (HSA), sequence (P02768 25-609): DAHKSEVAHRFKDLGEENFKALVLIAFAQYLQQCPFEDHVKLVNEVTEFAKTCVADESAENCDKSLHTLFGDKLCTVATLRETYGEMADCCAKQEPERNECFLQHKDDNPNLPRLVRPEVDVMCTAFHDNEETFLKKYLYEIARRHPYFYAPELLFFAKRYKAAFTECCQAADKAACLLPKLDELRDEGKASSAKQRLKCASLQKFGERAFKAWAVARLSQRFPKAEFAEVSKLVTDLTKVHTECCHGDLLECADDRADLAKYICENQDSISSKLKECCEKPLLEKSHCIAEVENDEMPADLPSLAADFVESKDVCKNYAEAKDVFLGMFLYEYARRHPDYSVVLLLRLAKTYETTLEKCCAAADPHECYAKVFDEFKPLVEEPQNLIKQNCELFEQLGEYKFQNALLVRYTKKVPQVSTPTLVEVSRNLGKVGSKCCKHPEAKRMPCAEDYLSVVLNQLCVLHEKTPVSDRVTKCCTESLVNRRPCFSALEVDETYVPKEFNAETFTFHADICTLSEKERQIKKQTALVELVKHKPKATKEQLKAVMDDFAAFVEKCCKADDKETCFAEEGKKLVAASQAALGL

Row | Compound | cumulative cell number (ULA cells) | cell viability (ULA cells) | activity in cellular assay compared with reported potency ([1]; cellular) | cumulative cell number [2] | activity in cell-free assay compared with reported potency ([3]; cell-free) | HSA binding [4] | IC50 ([1]; live cells, full-length human BCL6 / SMRT BBD, read-out: pIC50 Human NanoBret cell (converted)) | cell viability ([2]; GSK137 0.1-10 μM) | IC50 ([3]; from pIC50 = 8, read-out: affinity for the BCL6 BTB-POZ domain)
1 | CNC(=O)COc1cc2cc(Nc3nc(N4C[C@H](C)C[C@H](C)C4)ncc3Cl)ccc2n(C)c1=O [BI3802, reference compound] | most sensitive | only appreciably reduced viability in ULA at the highest concentration used | consistent with the previously reported potency | showed some response | consistent with the previously reported potency | – | – | – | –
2 | Cc1ncccc1[C@H]1C[C@@H](c2cccc3nc(N)ccc23)Nc2c(F)cnn21 [GSK137, 5-((5S,7R)-3-Fluoro-7-(2-methylpyridin-3-yl)-4,5,6,7-tetrahydropyrazolo[1,5-a]pyrimidin-5-yl)quinolin-2-amine] | – | no major change in cell viability; also recorded: only minimal reduction in viability | – | no detectable change | – | 91% | 50.1 nM | no major change in cell viability; also recorded: no detectable change | 10 nM
